Reference: patent US20210161894A1, “Compositions and Methods for Modulating Liver Endothelial Cell Fenestrations” (priority 2017, published 2021)
“Also recorded” adds a separate entry of the source.

Columns and labels:
[1] = system: isolated LSECs (liver sinusoidal endothelial cells); experiment: SEM of fenestrations in isolated LSECs from young and old mice after 30 min drug treatment (second Example 7); type: cell-based; details: for Diameter / Frequency / Porosity: 30 min; for effect on porosity and fenestration frequency (summary in words): young and old LSECs
Experimental: 3-4 and 18-24 month old male C57/B16 mice were obtained from the Animal Resource Centre in Perth, Western Australia. Animals were housed at the ANZAC Research Institute animal house on a 12 hour light/dark cycle and provided with ad libitum access to food and water. Mice were not fasted prior to euthanasia by a single intraperitoneal injection with 100 mg/kg ketamine and 10 mg/kg xylazine in saline. The study was approved by the Animal Welfare Committee of the Sydney Local Health District and was performed in accordance with the Australian Code of Practice for the care and use of animals for scientific research (AWC 2016/009). All information provided accords with the ARRIVE guidelines.
As described previously (Cogger et al. J e52698, 2015 https://dx.doi.org/10.3791/52698), mouse LSEC isolation was performed by perfusion of the liver with collagenase. Non-parenchymal cells were removed by a two-step Percoll gradient and Kupffer cells were removed by selective adherence to plastic. LSECs (seeded at 0.5×10^6 cells/cm2) were cultured (37° C., 5% CO2) in serum free RPMI-1640 for 3.5 hours before use.
Cells were treated with various agents for 30 minutes to determine effects on fenestrations. All agents were dissolved in serum-free RPMI media. All experiments were performed in triplicate for both young and old mice. Actin was disrupted with 0.5 μg/ml cytochalasin D and lipid rafts were disrupted with 3.6 and 1.8 μg/ml 7-keocholesterol; dosages were selected. […] The serotonergic/phospholipase C pathway was promoted with DOI (0.1 μg/ml) and endothelin receptors were inhibited by bosentan (550, 55 and 5.5 ng/ml) Death receptor 4 was promoted with TRAIL (100, 10. 1, 0.1 and 0.01 ng/ml) and NAD+ was promoted with NMN (5000, 50, 10, 1 and 0.1 μg/ml).
SEM was performed as previous described (Corbin et al J Biol Chem 274: 13729-13732, 1999.). LSECs were fixed in 2.5% glutaraldehyde in 0.1M sodium cacodylate buffer, osmicated, dehydrated in graded ethanol and hexamethyl disilazane, mounted on stubs, sputter coated with platinum and examined using a JEOL 6380 Scanning Electron Microscope (JEOL Ltd, Japan). Images at 10,000× magnification were collected by a blinded observer and used to measure fenestration diameter and LSEC porosity using Image J (NIH, MD, USA). […] Fenestrations less than 30 nm and gaps more than 300 nm were excluded from analysis. Porosity was defined as the percentage of the cell membrane covered with fenestrations. Frequency was defined at the number of fenestrations per […].
Individual specifications of analyses are described in figures legends. All data are presented as mean±SD. Experimental design and analysis were performed in accordance with the APS guidelines described in Curran-Everett and Benos DJ. Adv Physiol Educ 31: 295-298, 2007.

LSEC fenestrations = experiment: SEM of LSEC fenestrations after drug treatments (Example 2, FIGS. 1-6); type: cell-based, mice; details: for sieve plates and fenestration density on SEM images: young and old mice; for change in fenestration diameter: Bosentan 0.1 μM, Sildenafil 300 ng/ml, TRAIL 1 μg/ml
Source text: Young and old C57B16 mice (n=3 young mice, age 3-4 and n=3 old mice, 20-24 months) were maintained under full SPF conditions and with ad libitum feeding. The study had the approval of the Sydney South West Area Health Service Animal Welfare Committee. Mice at 20-24 months are senescent. Animals were sacrificed withCO2 and livers immediately perfusion-fixed via a 23G needle inserted into the portal vein. Liver tissue was fixed with1% glutaraldehyde/4% para-formaldehyde in PBS (0.1M sucrose).
Drug treatments and dosages (shown superimposed on their corresponding image in FIGS. 1, and 2) were performed by incubating liver cells at 37° C., 5% CO2 for 30 mins using RPMI with or without dissolved drug. All images were taken by two blinded researchers using a SEM at 10,000×, scale bars of 1 μm are shown.
Each data point represents the average±SD of 8 images (as shown in FIGS. 1 and 2), 616-3312 fenestration raw data points were collected per treatment.

[2] = system: actin cytoskeleton of LSECs; experiment: dSTORM imaging of the actin cytoskeleton; type: cell-based; details: young mice
Experimental: dSTORM imaging was performed using an in-house microscope. LSECs were prepared for dSTORM by washing twice with PBS and fixation with 4% paraformaldehyde for 30 mins. Then LSECs were washed twice with PBS, permeabilised with Triton-X for 90 secs, blocked with 5% bovine serum albumin for 1 hour, and stained with Alexa Flour phalloidin 488 (1:40) for 20 min prior to imaging. Cells were washed using PBS with 0.1% Tween and placed in OxEA buffer (30) for dSTORM visualisation and image capture. The dSTORM used 488 and 647 nm excitation from diode-pumped lasers (Coherent Inc, CA, USA). Excitation was delivered via a 1.49NA 60× oil-immersion TIRF objective (Olympus Australia, AUS). Fluorescence was captured on two separate sCMOS cameras (Imaging Development Systems GmbH, Germany). Data was collected for up to 40,000 images at around 75 fps. 5-8 whole cell images were collected by a blinded observer for each treatment dosage and processed using rapidSTORM open source software (Wolter et al. Nat Methods 9: 1040, 2012.). Each image was examined for all sieve plates and actin structures. Densitometry measurements were performed using 5-8 dSTORM images with data analysis performed using Image J software (NIH, MD, USA).

Intracellular cGMP = experiment: Cyclic GMP ELISA; type: cell-based, mice
Experimental: Assays for MTT and cGMP were performed as instructed by the kit. Briefly, MTT assays were performed following drug treatments. Cells were washed with PBS and incubated with RPMI media containing […] MTT solution. Cells were incubated at 37° C. for 4 hrs and lysed with […] solubilisation solution, 30 mins colour development followed and measured at 570 nm using a spectrophotometer. cGMP assays were also performed after drug treatments. Cells were washed with PBS and lysed with 0.1M HCl. Following sample collection the sample was acetylated and prepared with kit reagents. Samples were incubated for 18 hrs at 4° C. before examination at 410 nm with a spectrophotometer.

NAD+ = details: cited from earlier work
[3] = old rats, 500 mg/kg; cited from earlier work
[4] = system: human umbilical vein endothelial cells; details: 15 mins of 1 μg/ml treatment; cited from earlier work

For `NC(=O)c1ccc[n+]([C@@H]2O[C@H](COP(=O)([O-])O)[C@@H](O)[C@H]2O)c1` [NMN, nicotinamide mononucleotide], the gap formation [1] was “Gap formation was apparent”, the “fenestration porosity after treatment” value ([1]; LSECs from young mice, increase from 4.6%) was 8.1% and the average fenestration diameter ([1]; old mice) was 132±2 nm. It also gave an increase in frequency ([1]; old mice, 50 pg/ml) of 2.25 fold, an increase in porosity ([1]; old mice, 50 pg/ml) of 2.5 fold and a Diameter ([1]; old mice, 50 μg/ml) of 132.12 ± 2.28 nm. The Frequency ([1]; old mice, 50 μg/ml) was 3.95 ± 1.35 no/area, the Porosity ([1]; old mice, 50 μg/ml) was 5.92 ± 1.94 % and the Diameter ([1]; old mice, 5000 μg/ml) was 139.05 ± 11.97 nm. The Frequency ([1]; old mice, 5000 μg/ml) was 3.39 ± 0.60 no/area, the Porosity ([1]; old mice, 5000 μg/ml) was 5.55 ± 1.75 % and the “effect on porosity and fenestration frequency (summary in words)” value [1] was “significant increases in porosity and fenestration frequency in both young and old LSECs”. The “dose response on fenestration porosity (words)” value ([1]; young mice) was “broad range”, the Diameter ([1]; young mice, 50 μg/ml) was 127.68 ± 8.19 nm and the Frequency ([1]; young mice, 50 μg/ml) was 4.53 ± 0.58 no/area. The Porosity ([1]; young mice, 50 μg/ml) was 6.08 ± 1.00%, the Diameter ([1]; young mice, 5000 μg/ml) was 130.48 ± 13.21 nm and the Frequency ([1]; young mice, 5000 μg/ml) was 5.53 ± 0.58 no/area. For the same molecule, the Porosity ([1]; young mice, 5000 μg/ml) was 8.05 ± 2.23 %, the “shift in frequency distribution of fenestration diameter” value ([1]; young mice, NMN 5000 μg/ml, 7-ketocholesterol 3.6 μg/ml) was “an increase in 30-100 nm and 226-500 nm fenestrations with a reduction in 126-200 nm fenestrations” and the “diameter of fenestrations observed on SEM images” value (LSEC fenestrations) was “Increased diameter of fenestrations”. For the same molecule, the “sieve plate grouping on SEM images” value (LSEC fenestrations; old mice) was “greater fenestration sieve plate grouping”, the fenestration diameter (LSEC fenestrations; old mice, 50 μg/ml) was 133.4±0.9 nm and the fenestration frequency (LSEC fenestrations; old mice, 50 μg/ml) was 4.4±1.6 number/μm^2. For the same molecule, the fenestration porosity (LSEC fenestrations; old mice, 50 μg/ml) was 6.6±2.2%, the “peak frequency in histogram of fenestration diameter” value (LSEC fenestrations; old mice, bin range of 101-125 nm) was 24% and the “sieve plates and fenestration density on SEM images” value (LSEC fenestrations) was “promoted increased fenestration density and maintained sieve plate fenestration clustering”. For the same molecule, the fenestration frequency (LSEC fenestrations; young mice, 5 mg/ml) was 5.9±0.1 number/μm^2, the fenestration porosity (LSEC fenestrations; young mice, 5 mg/ml) was 9.1±2.0% and the “actin changes with drug treatments (dSTORM)” value [2] was “loss of smooth fibres encircling the cytoplasm; also recorded: disordered, dense actin staining in the plasma membrane and clustering of actin within the cytoplasm; also recorded: Individual fenestrations; also recorded: Disordered actin structure; also recorded: Actin clusters; also recorded: Gap formations”. For the same molecule, the “change of intracellular cGMP” value (Intracellular cGMP) was “no changes”, the “insulin action and secretion” value (NAD+; diet and age induced type 2 diabetic mice models, similar dosages continuously for 7 days) was “improve insulin action and secretion” and the “NAD+” value (NAD+; female mice, 15 mins after single intraperitoneal injection of 500 mg/kg) was “Elevated NAD+”. The glucose tolerance [3] was “improved glucose tolerance” and the toxicity [3] was “non-toxic”.

B1: Tumor necrosis factor-related apoptosis inducing ligand (protein, UniProt P50591 1-281, looked up)
Tumor necrosis factor ligand …: MAMMEVQGGPSLGQTCVLIVIFTVLLQSLCVAVTYVYFTNELKQMQDKYSKSGIACFLKEDDSYWDPNDEESMNSPCWQVKWQLRQLVRKMILRTSEETISTVQEKQQNISPLVRERGPQRVAAHITGTRGRSNTLSSPNSKNEKALGRKINSWESSRSGHSFLSNLHLRNGELVIHEKGFYYIYSQTYFRFQEEIKENTKNDKQMVQYIYKYTSYPDPILLMKSARNSCWSKDAEYGLYSIYQGGIFELKENDRIFVSVTNEHLIDMDHEASFFGAFLVG
notes: death receptor 4/5 promoter
B1 showed a Diameter ([1]; old mice, 1 ng/ml) of 127.50 ± 15.53 nm, a Frequency ([1]; old mice, 1 ng/ml) of 1.97 ± 0.49 no/area and a Porosity ([1]; old mice, 1 ng/ml) of 2.79 ± 0.14%. The Diameter ([1]; old mice, 10 ng/ml) was 120.08 ± 3.74 nm, the Frequency ([1]; old mice, 10 ng/ml) was 2.13 ± 0.48 no/area and the Porosity ([1]; old mice, 10 ng/ml) was 2.85 ± 0.53%. The Diameter ([1]; old mice, 100 ng/ml) was 130.88 ± 17.00 nm, the Frequency ([1]; old mice, 100 ng/ml) was 2.03 ± 0.53 no/area and the Porosity ([1]; old mice, 100 ng/ml) was 2.97 ± 0.46%. The “effect on porosity and fenestration frequency (summary in words)” value [1] was “LSECs from young mice only demonstrated significant increases in porosity and frequency”, the “dose response on fenestration porosity (words)” value ([1]; young mice) was “did not promote greater changes in fenestration porosity or frequency; also recorded: had the greatest activity and similar maximal efficacy to NMN but was more potent; also recorded: limited dosage range for positive effects on fenestration porosity” and the “increase in fenestration frequency” value ([1]; young mice) was 40%. It also gave an increase in porosity ([1]; young mice) of 60%, a Diameter ([1]; young mice, 1 ng/ml) of 137.95 ± 8.12 nm and a Frequency ([1]; young mice, 1 ng/ml) of 4.47 ± 0.43 no/area. For the same molecule, the Porosity ([1]; young mice, 1 ng/ml) was 7.17 ± 1.49 %, the “Change in Porosity, Young” value ([1]; young mice, 10 ng/ml) was “↑ (ns)” and the Diameter ([1]; young mice, 10 ng/ml) was 140.36 ± 3.22 nm. For the same molecule, the Frequency ([1]; young mice, 10 ng/ml) was 3.73 ± 0.46 no/area, the Porosity ([1]; young mice, 10 ng/ml) was 6.24 ± 0.52 % and the Diameter ([1]; young mice, 100 ng/ml) was 145.87 ± 6.77 nm. For the same molecule, the Frequency ([1]; young mice, 100 ng/ml) was 3.15 ± 0.27 no/area, the Porosity ([1]; young mice, 100 ng/ml) was 5.49 ± 0.63% and the “fenestration numbers, fenestrated cell area and sieve plate formation” value ([1]; young mice, sildenafil 0.3 μg/ml, amlodipine 20 ng/ml, TRAIL 1 ng/ml) was “increased fenestration numbers and overall fenestrated cell area with some disruption to sieve plate formation”. For the same molecule, the “sieve plate grouping on SEM images” value (LSEC fenestrations; old mice) was “greater fenestration sieve plate grouping”, the fenestration porosity (LSEC fenestrations; old mice, 1 μg/ml) was 2.7±0.1% and the “change in fenestration diameter” value (LSEC fenestrations; old mice, 7KC 4.5 μM) was “No changes in diameter”. The “sieve plates and fenestration density on SEM images” value (LSEC fenestrations) was “promoted increased fenestration density and maintained sieve plate fenestration clustering”, the fenestration frequency (LSEC fenestrations; young mice, 1 μg/ml) was 4.5±0.4 number/μm^2 and the fenestration porosity (LSEC fenestrations; young mice, 1 μg/ml) was 7.2±1.5%. For the same molecule, the “change in fenestration diameter” value (LSEC fenestrations; young mice) was “No changes in diameter”, the “actin changes with drug treatments (dSTORM)” value [2] was “absence of the intense actin clustering; also recorded: Disordered actin structure; also recorded: Gap formations; also recorded: Minimal actin clustering” and the “increase of intracellular cGMP” value (Intracellular cGMP; p=0.001) was 3 fold. For the same molecule, the “NOS and phosphorylated NOS” value [4] was “upregulate NOS and phosphorylated NOS”.
